{"source": "patent US20170143674A1", "about": "“Use of Glutaryl Histamine for the Treatment of Respiratory Tract Diseases” (LTD \"VALENTA-INTELLEKT\", priority 2011, published 2017)", "assay_in_all_cases": "animal or person", "type_in_all_cases": "in vivo, mice", "key": {"[1]": {"test_system": "Staphylococcus aureus (mouse-adapted strain 10)", "method": "The tested medicament was glutaryl histamine in doses of 15, 30 and 45 mg/kg. Solutions of the tested medicament for oral administration were prepared ex tempore. Levofloxacin (in oral administration) was used as a therapeutic preparation since this substance was the most experimentally studied antibiotic approved in clinical practice many years ago.\nStaphylococcus aureus (mouse-adaptedstrain 10) was used as an infectious agent. Mice were infected intravenously.\n(§1) Firstly, there was determined a lethal dose (LD100) of staphylococcus to be intravenously administered to this line of mice having a certain weight. Fatal cases among mice were registered every day for ten days. The lethal dose was 3×10^8 CFU/mouse. […] For this purpose, mice were housed into cages (10 animals per cage) and infected with a lethal dose of staphylococcus. One hour after each mouse was administered orally levofloxacin in doses of 1, 2, 4, 6, 8, 10, and 12 mg/kg. A group of mice infected with a lethal dose of staphylococcus without the treatment was considered as a control group. Fatal cases among mice were registered every day for ten days.\nThe next step of the experiment was to study an effect of combined administration of glutaryl histamine and levofloxacin on a model of staphylococcal sepsis in mice.\n(§2) In the experiment, mice were housed in following groups (10 animals per cage):\nGlutaryl histamine was administered orally in the corresponding doses to the mice of groups 3, 4, 5, 6, 7, and 8 for 5 days. Five day after, all groups of mice were intravenously administered with 0.2 ml of Staphylococcus aureus in the lethal dose. […] After infection and administration of levofloxacin, glutaryl histamine was administered to mice of groups 3-8 for additional 5 days. During the experiment, the animals were observed every day, and fatal cases were registered (see Table 13)."}, "[2]": {"test_system": "Escherichia coli (mouse-adapted strain 4300)", "method": "Escherichia coli (mouse-adaptedstrain 4300, Institute collection) was used as an infectious agent. Mice were infected intravenously.\nas §1, with “there were” for “there was”, “of Escherichia coli” for “of staphylococcus”, “mice with” for “mice having”, “days.” for “days. The lethal dose was 3×10^8 CFU/mouse.”, “of Escherichia coli.” for “of staphylococcus.”\nThe next step of the experiment was to study an effect of combined administration of glutaryl histamine and levofloxacin on a model of E. coli sepsis in mice.\nas §2\nGlutaryl histamine was administered orally in the corresponding doses to mice of groups 3, 4, 5, 6, 7, and 8 for 5 days. Five day after, all groups of mice were intravenously administered 0.2 ml of Escherichia coli in the lethal dose. […] After infection and administration of levofloxacin, glutaryl histamine was administered to mice of groups 3-8 for additional 5 days. During the experiment, the animals were observed every day, and fatal cases were registered (see Table 14)."}, "[3]": {"test_system": "Staphylococcus aureus (mouse-adapted MRSA strain 5)", "method": "Tested medicament was glutaryl histamine in doses of 15, 30 and 45 mg/kg. Solutions of the tested medicament for oral administration were prepared ex tempore in stream water. Ampicillin (in intravenous administration) was used as a therapeutic preparation since it is the most experimentally studied antibiotic approved in clinical practice many years ago. Levofloxacin was used as a positive control (in oral administration).\nStaphylococcus aureus was used as an infectious agent (mouse-adapted MRSA strain 5, collection from GU NIINA im.G.F. Gauze RAMN).\nFirstly, there was determined a lethal dose (LD100) of staphylococcus when intravenously administered to this line of mice with a certain weight. Fatal cases among mice were registered every day for ten days. […] After that, there was determined the dose of ampicillin providing a survival rate of 20% of mice infected with staphylococcus MRSA taken in a lethal dose. For this purpose, mice were housed into cages by 10 animals and infected with a lethal dose of staphylococcus. One hour later, each mouse was intravenously administered ampicillin in doses of 30, 60, 90, 120, 150, and 180 mg/kg. A group of mice infected with a lethal dose of staphylococcus without the treatment was considered as a control group. Fatal cases among mice were registered every day for ten days.\nThe next step of the experiment was to study an effect of combined administration of glutaryl histamine with ampicilline on a model of MRSA-induced staphylococcal sepsis in mice.\nIn the experiment, the mice were housed in following groups of 10 animals per cage: […]"}, "[4]": {"details": "levofloxacin 2.65 mg/kg, tenth day"}, "[5]": {"details": "levofloxacin 20 mg/kg, tenth day"}, "[6]": {"details": "group 3: levofloxacin 4 mg/ml per os one time"}}}
{"smiles": "C[C@H]1COc2c(N3CCN(C)CC3)c(F)cc3c(=O)c(C(=O)O)cn1c23", "note": "[levofloxacin, reference compound]", "values": [{"measurement": "ED50", "setting": "[1]; Staphylococcus aureus, po, read-out: ED50 (50% effective dose)", "value": 2.65, "unit": "mg/kg"}, {"measurement": "died/survived animals", "setting": "[1]; day 1, levofloxacin 2.65 mg/kg", "value": "0/10"}, {"measurement": "died/survived animals", "setting": "[1]; day 2, levofloxacin 2.65 mg/kg", "value": "0/10"}, {"measurement": "died/survived animals", "setting": "[1]; day 3, levofloxacin 2.65 mg/kg", "value": "1/9"}, {"measurement": "died/survived animals", "setting": "[1]; day 4, levofloxacin 2.65 mg/kg", "value": "2/8"}, {"measurement": "died/survived animals", "setting": "[1]; day 5, levofloxacin 2.65 mg/kg", "value": "4/6"}, {"measurement": "died/survived animals", "setting": "[1]; day 6, levofloxacin 2.65 mg/kg", "value": "4/6"}, {"measurement": "died/survived animals", "setting": "[1]; day 7, levofloxacin 2.65 mg/kg", "value": "4/6"}, {"measurement": "died/survived animals", "setting": "[1]; day 8, levofloxacin 2.65 mg/kg", "value": "5/5"}, {"measurement": "died/survived animals", "setting": "[1]; day 9, levofloxacin 2.65 mg/kg", "value": "5/5"}, {"measurement": "died/survived animals", "setting": "[1]; day 10, levofloxacin 2.65 mg/kg", "value": "5/5"}, {"measurement": "Mortality rate (%)", "setting": "[1]; [4]", "value": 50, "unit": "%"}, {"measurement": "Survival rate (%)", "setting": "[1]; [4]", "value": 50, "unit": "%"}, {"measurement": "ED50", "setting": "[2]; Escherichia coli, po, read-out: ED50 (50% effective dose)", "value": 2.97, "unit": "mg/kg"}, {"measurement": "died/survived animals", "setting": "[2]; day 1, levofloxacin 20 mg/kg", "value": "0/10"}, {"measurement": "died/survived animals", "setting": "[2]; day 2, levofloxacin 20 mg/kg", "value": "0/10"}, {"measurement": "died/survived animals", "setting": "[2]; day 3, levofloxacin 20 mg/kg", "value": "0/10"}, {"measurement": "died/survived animals", "setting": "[2]; day 4, levofloxacin 20 mg/kg", "value": "1/9"}, {"measurement": "died/survived animals", "setting": "[2]; day 5, levofloxacin 20 mg/kg", "value": "2/8"}, {"measurement": "died/survived animals", "setting": "[2]; day 6, levofloxacin 20 mg/kg", "value": "3/7"}, {"measurement": "died/survived animals", "setting": "[2]; day 7, levofloxacin 20 mg/kg", "value": "4/6"}, {"measurement": "died/survived animals", "setting": "[2]; day 8, levofloxacin 20 mg/kg", "value": "5/5"}, {"measurement": "died/survived animals", "setting": "[2]; day 9, levofloxacin 20 mg/kg", "value": "5/5"}, {"measurement": "died/survived animals", "setting": "[2]; day 10, levofloxacin 20 mg/kg", "value": "5/5"}, {"measurement": "Mortality rate (%)", "setting": "[2]; [5]", "value": 50, "unit": "%"}, {"measurement": "Survival rate (%)", "setting": "[2]; [5]", "value": 50, "unit": "%"}, {"measurement": "ED50", "setting": "[3]; Staphylococcus aureus, MRSA, po", "value": 4, "unit": "mg/kg"}, {"measurement": "died/survived animals", "setting": "[3]; day 1, group 3: levofloxacin 4 mg/ml per os one time", "value": "0/10"}, {"measurement": "died/survived animals", "setting": "[3]; day 2, group 3: levofloxacin 4 mg/ml per os one time", "value": "0/10"}, {"measurement": "died/survived animals", "setting": "[3]; day 3, group 3: levofloxacin 4 mg/ml per os one time", "value": "0/10"}, {"measurement": "died/survived animals", "setting": "[3]; day 4, group 3: levofloxacin 4 mg/ml per os one time", "value": "1/9"}, {"measurement": "died/survived animals", "setting": "[3]; day 5, group 3: levofloxacin 4 mg/ml per os one time", "value": "2/8"}, {"measurement": "died/survived animals", "setting": "[3]; day 6, group 3: levofloxacin 4 mg/ml per os one time", "value": "3/7"}, {"measurement": "died/survived animals", "setting": "[3]; day 7, group 3: levofloxacin 4 mg/ml per os one time", "value": "4/6"}, {"measurement": "died/survived animals", "setting": "[3]; day 8, group 3: levofloxacin 4 mg/ml per os one time", "value": "5/5"}, {"measurement": "died/survived animals", "setting": "[3]; day 9, group 3: levofloxacin 4 mg/ml per os one time", "value": "5/5"}, {"measurement": "died/survived animals", "setting": "[3]; day 10, group 3: levofloxacin 4 mg/ml per os one time", "value": "5/5"}, {"measurement": "Mortality rate (%)", "setting": "[3]; [6]", "value": 50, "unit": "%"}, {"measurement": "Survival rate (%)", "setting": "[3]; [6]", "value": 50, "unit": "%"}]}
